This passage reports IC50 and MTAP intact/deleted ratio results from patent US11999727B2 (Tango Therapeutics, Inc., priority 2020, dated 2024).

Test [1] concerns the target T1, PRMT5 (Homo sapiens, UniProt O14744).
T1 construct: purchased Viva (custom protein)
Description: PRMT5 biochemical IC50 assay with MTA as cofactor. The conditions noted are these: PRMT5, MTA as cofactor; read-out: MTA IC50.

The test system of test [2] is HAP1 MTAP-deleted cell line. Description: Viability assay, MTAP-deleted cell line. The test is classed as cell-based. Conditions: Homo sapiens, HAP1, viability assay, MTAP-deleted cell line; read-out: HAP1 MTAP deleted viability. The source says: Table 1 additionally indicates IC50 values in a viability assay for the MTAP-deleted cell line (column 10), indicating the effect of treatment with compound on cell survival.

Test [3] addresses T1, PRMT5. Description: PRMT5 biochemical IC50 assay with no cofactor. Conditions: PRMT5, no cofactor; read-out: No Cofactor/rel IC50. The source says:
Table 1 indicates IC50 values (μM) against PRMT5 for exemplary compounds in the presence of SAM as cofactor, with no cofactor, and with MTA as cofactor, respectively (columns 4-6). […] Ki values can be calculated from the IC50 values as described in the Examples section. As detailed in the Examples section, for the assay performed in the presence of SAM, IC50=Ki×1.5 (Ki=IC50/1.5).

Test [4] concerns HAP1 MTAP-intact cell line. The test is described as follows: SDMA in-cell western assay, HAP1 MTAP-intact. The format is cell-based. Conditions: Homo sapiens, HAP1, SDMA in-cell western, HAP1 MTAP-intact; read-out: MTAP HAP1 intact IC50. The method, boiled down:
(§1)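 IC50 values come from SDMA signal quantified by in-cell western in two HAP1 lines, one with native MTAP levels and one lacking MTAP.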

The target in test [5] is T1, PRMT5. Description: PRMT5 biochemical IC50 assay with SAM as cofactor. The conditions noted are these: PRMT5, SAM as cofactor; read-out: SAM IC50.
Test [6] deals with HAP1 MTAP-deleted cell line. The test is described as follows: SDMA in-cell western assay, HAP1 MTAP-deleted. The test is classed as cell-based. The conditions noted are these: for IC50: Homo sapiens, HAP1, SDMA in-cell western, HAP1 MTAP-deleted, read-out: HAP1 MTAP deleted IC50; for MTAP intact/deleted ratio: IC50 ratio HAP1 MTAP-intact / HAP1 MTAP-deleted, SDMA in-cell western. In short, it runs like this:
as §1

Structures are written as SMILES.

T1 sequence (O14744 whole entry): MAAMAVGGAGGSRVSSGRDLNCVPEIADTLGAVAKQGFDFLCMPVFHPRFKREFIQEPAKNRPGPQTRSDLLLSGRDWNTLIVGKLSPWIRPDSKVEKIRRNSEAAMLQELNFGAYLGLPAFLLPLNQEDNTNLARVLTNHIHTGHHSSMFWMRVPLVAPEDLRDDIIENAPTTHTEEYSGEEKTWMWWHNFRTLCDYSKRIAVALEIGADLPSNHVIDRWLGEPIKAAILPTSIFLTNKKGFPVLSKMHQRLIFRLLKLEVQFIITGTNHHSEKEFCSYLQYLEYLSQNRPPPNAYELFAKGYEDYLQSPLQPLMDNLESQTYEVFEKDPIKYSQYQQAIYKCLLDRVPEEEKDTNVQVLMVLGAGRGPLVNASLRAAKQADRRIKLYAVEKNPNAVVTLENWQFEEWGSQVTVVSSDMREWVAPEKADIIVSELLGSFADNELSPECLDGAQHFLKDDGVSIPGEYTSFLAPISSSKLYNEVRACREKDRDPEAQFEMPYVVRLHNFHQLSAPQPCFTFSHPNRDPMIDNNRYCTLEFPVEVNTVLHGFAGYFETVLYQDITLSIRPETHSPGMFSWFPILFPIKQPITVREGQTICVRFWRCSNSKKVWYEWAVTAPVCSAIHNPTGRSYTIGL
T1 sequence (Q9BQA1 whole entry partner): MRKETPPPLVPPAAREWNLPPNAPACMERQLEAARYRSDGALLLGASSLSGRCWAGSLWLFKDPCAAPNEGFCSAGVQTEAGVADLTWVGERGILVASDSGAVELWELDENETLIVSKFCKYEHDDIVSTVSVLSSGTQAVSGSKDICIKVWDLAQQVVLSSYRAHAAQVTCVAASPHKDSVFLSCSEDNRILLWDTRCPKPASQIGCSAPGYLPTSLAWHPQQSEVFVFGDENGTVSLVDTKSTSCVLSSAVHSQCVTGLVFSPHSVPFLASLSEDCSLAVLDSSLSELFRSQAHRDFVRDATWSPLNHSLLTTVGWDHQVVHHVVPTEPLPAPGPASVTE

In the case of `Cc1cc(NC(=O)C(=O)N2CC[C@@H](C#N)C[C@H]2c2ccccc2)cnc1N` (single isomer, unassigned) [Compound 399], the IC50 on PRMT5 [1] was less than 50 nM; in test [2], 1000 to 10000 nM; on PRMT5 [3], 50 to 500 nM; in test [4], greater than 1000 nM; at PRMT5 [5] it was 50 to 500 nM; in test [6] it was less than 100 nM. The MTAP intact/deleted ratio result in test [6] is reported as “A (an IC50 ratio greater than or equal to 10 fold)”.

Turning to `Cc1cc(NC(=O)C(=O)N2[C@H](C)CCC[C@@H]2c2ccccc2)cnc1N` (single isomer, unassigned) [Compound 415], the IC50 at PRMT5 [1] is less than 50 nM; in test [2] it was 1000 to 10000 nM; at PRMT5 [3] it was 50 to 500 nM; in test [4] it was 100 to 1000 nM; at PRMT5 [5] it was 50 to 500 nM; in test [6] it was less than 100 nM. In addition, in test [6], the MTAP intact/deleted ratio entry is listed as “A (an IC50 ratio greater than or equal to 10 fold)”.

As to `Cc1cc(NC(=O)C(=O)N2[C@@H](C)CCC[C@H]2c2ccccc2)cnc1N` (single isomer, unassigned) [Compound 417], the IC50 on PRMT5 [1] was 50 to 500 nM; in test [2], greater than 10000 nM; at PRMT5 [3], greater than 500 nM; in test [4], greater than 1000 nM; on PRMT5 [5] it was 50 to 500 nM; in test [6], 100 to 1000 nM. Also, the MTAP intact/deleted ratio result in test [6] was “B (an IC50 ratio greater than or equal to 3 fold but lower than 10 fold)”.

On to `Cc1c(NC(=O)C(=O)N2[C@@H](C)CCC[C@H]2c2ccccc2)cnc(N)c1C` (single isomer, unassigned) [Compound 425], for which the IC50 on PRMT5 [1] is less than 50 nM; in test [2] it was 1000 to 10000 nM; on PRMT5 [3], 50 to 500 nM; in test [4], greater than 1000 nM; at PRMT5 [5] it was 50 to 500 nM; in test [6] it was 100 to 1000 nM. Also, the MTAP intact/deleted ratio result in test [6] was “A (an IC50 ratio greater than or equal to 10 fold)”.

As for `Cc1cc(NC(=O)C(=O)N2C[C@H](C)CC[C@H]2[C@H]2CC[C@H](O)CC2)cnc1N` (single isomer, unassigned) [Compound 431], the IC50 was less than 50 nM at PRMT5 [1]; 1000 to 10000 nM in test [2]; 50 to 500 nM at PRMT5 [3]; greater than 1000 nM in test [4]; 50 to 500 nM on PRMT5 [5]; less than 100 nM in test [6]. The MTAP intact/deleted ratio result in test [6] is on record as “A (an IC50 ratio greater than or equal to 10 fold)”.

In the case of `C[C@@H]1CC[C@@H](c2ccc3c(c2)CCCN3)N(C(=O)C(=O)Nc2cncc(C(N)=O)c2)C1` (single isomer, unassigned) [Compound 432], the IC50 is less than 50 nM at PRMT5 [1]; 1000 to 10000 nM in test [2]; 50 to 500 nM at PRMT5 [3]; greater than 1000 nM in test [4]; 50 to 500 nM at PRMT5 [5]; less than 100 nM in test [6]. In test [6], the MTAP intact/deleted ratio entry was “A (an IC50 ratio greater than or equal to 10 fold)”.

As to `C[C@H]1CC[C@H](c2ccccc2)N(C(=O)C(=O)Nc2cncc(C(N)=O)c2)[C@H]1C` (single isomer, unassigned) [Compound 433], the IC50 on PRMT5 [1] is less than 50 nM; in test [2], greater than 10000 nM; at PRMT5 [3], greater than 500 nM; in test [4], greater than 1000 nM; at PRMT5 [5] it was 50 to 500 nM; in test [6], less than 100 nM. For the same molecule, the MTAP intact/deleted ratio entry in test [6] is “A (an IC50 ratio greater than or equal to 10 fold)”.

On to `Cc1cc(NC(=O)C(=O)N2C[C@H](C)CC[C@H]2[C@H]2CC[C@@H](O)CC2)cnc1N` (single isomer, unassigned) [Compound 436], for which the IC50 on PRMT5 [1] was 50 to 500 nM; in test [2] it was greater than 10000 nM; on PRMT5 [3], 50 to 500 nM; in test [4] it was greater than 1000 nM; at PRMT5 [5] it was 50 to 500 nM; in test [6], 100 to 1000 nM. Further, the MTAP intact/deleted ratio entry in test [6] was “A (an IC50 ratio greater than or equal to 10 fold)”.

As for `C[C@@H]1CC[C@@H](c2ccc(NCC(=O)N(C)C)cc2)N(C(=O)C(=O)Nc2cncc(C(N)=O)c2)C1` (single isomer, unassigned) [Compound 437], the IC50 on PRMT5 [1] is less than 50 nM; in test [2], 1000 to 10000 nM; at PRMT5 [3], 50 to 500 nM; in test [4], greater than 1000 nM; at PRMT5 [5] it was 50 to 500 nM; in test [6], less than 100 nM. In addition, the MTAP intact/deleted ratio entry in test [6] is recorded as “A (an IC50 ratio greater than or equal to 10 fold)”.

`Cc1c(NC(=O)C(=O)N2[C@H](C)CCC[C@@H]2c2ccccc2)cnc(N)c1C` (single isomer, unassigned) [Compound 439]: the IC50 on PRMT5 [1] was less than 50 nM; in test [2], 1000 to 10000 nM; on PRMT5 [3], 50 to 500 nM; in test [4], greater than 1000 nM; at PRMT5 [5], 50 to 500 nM; in test [6], less than 100 nM. Further, in test [6], the MTAP intact/deleted ratio result is on record as “A (an IC50 ratio greater than or equal to 10 fold)”.

For `C[C@H]1CC[C@H](c2cccc(Cl)c2)N(C(=O)C(=O)Nc2cncc(C(N)=O)c2)C1` (single isomer, unassigned) [Compound 440], the IC50 was less than 50 nM at PRMT5 [1]; 1000 to 10000 nM in test [2]; 50 to 500 nM at PRMT5 [3]; greater than 1000 nM in test [4]; 50 to 500 nM on PRMT5 [5]; less than 100 nM in test [6]. For the same molecule, in test [6], the MTAP intact/deleted ratio result is recorded as “A (an IC50 ratio greater than or equal to 10 fold)”.

For the molecule `CNc1ccc([C@@H]2CC[C@@H](C)CN2C(=O)C(=O)Nc2cncc(C(N)=O)c2)cn1` (single isomer, unassigned) [Compound 443], the IC50 at PRMT5 [1] is less than 50 nM; in test [2], less than 1000 nM; on PRMT5 [3] it was less than 50 nM; in test [4] it was greater than 1000 nM; at PRMT5 [5], 50 to 500 nM; in test [6], less than 100 nM. Moreover, the MTAP intact/deleted ratio result in test [6] was “A (an IC50 ratio greater than or equal to 10 fold)”.

Take `COc1ncc(NC(=O)C(=O)N2C[C@H](C)CC[C@H]2c2ccc(F)cc2)cc1C(N)=O` (single isomer, unassigned) [Compound 446]: the IC50 is less than 50 nM at PRMT5 [1]; 1000 to 10000 nM in test [2]; 50 to 500 nM at PRMT5 [3]; greater than 1000 nM in test [4]; 50 to 500 nM on PRMT5 [5]; less than 100 nM in test [6]. Besides, the MTAP intact/deleted ratio entry in test [6] is reported as “A (an IC50 ratio greater than or equal to 10 fold)”.

Take `CNc1ccc([C@H]2CC[C@H](C)CN2C(=O)C(=O)Nc2cnc(OC)c(C(N)=O)c2)cn1` (single isomer, unassigned) [Compound 447]: the IC50 was less than 50 nM at PRMT5 [1]; less than 1000 nM in test [2]; less than 50 nM on PRMT5 [3]; greater than 1000 nM in test [4]; 50 to 500 nM at PRMT5 [5]; less than 100 nM in test [6]. In test [6], the MTAP intact/deleted ratio result is “A (an IC50 ratio greater than or equal to 10 fold)”.

Take `CNc1ccc([C@@H]2CC[C@@H](C)CN2C(=O)C(=O)Nc2cnc(OC)c(C(N)=O)c2)cn1` (single isomer, unassigned) [Compound 448]: the IC50 on PRMT5 [1] is greater than 500 nM; in test [2], greater than 10000 nM; on PRMT5 [3] it was greater than 500 nM; in test [4], greater than 1000 nM; at PRMT5 [5], greater than 500 nM; in test [6] it was greater than 1000 nM. Further, in test [6], the MTAP intact/deleted ratio entry is listed as “C (an IC50 ratio of less than 3 fold)”.

With `CNc1cccc([C@@H]2CC[C@@H](C)CN2C(=O)C(=O)Nc2cnc(N)c(C)c2)c1` (single isomer, unassigned) [Compound 449], the IC50 was less than 50 nM on PRMT5 [1]; less than 1000 nM in test [2]; 50 to 500 nM at PRMT5 [3]; 100 to 1000 nM in test [4]; 50 to 500 nM on PRMT5 [5]; less than 100 nM in test [6]. Moreover, the MTAP intact/deleted ratio result in test [6] is given as “A (an IC50 ratio greater than or equal to 10 fold)”.

For `CC(=O)Nc1ccc([C@@H]2CC[C@@H](C)CN2C(=O)C(=O)Nc2cncc(C(N)=O)c2)cc1` (single isomer, unassigned) [Compound 451], the IC50 at PRMT5 [1] was less than 50 nM; in test [2] it was 1000 to 10000 nM; on PRMT5 [3], 50 to 500 nM; in test [4], greater than 1000 nM; at PRMT5 [5] it was 50 to 500 nM; in test [6], less than 100 nM. For the same molecule, the MTAP intact/deleted ratio entry in test [6] is listed as “A (an IC50 ratio greater than or equal to 10 fold)”.

As to `COc1ncc(NC(=O)C(=O)N2C[C@H](C)CC[C@H]2c2ccc3c(c2)CC(=O)N3)cc1C(N)=O` (single isomer, unassigned) [Compound 453], the IC50 on PRMT5 [1] was greater than 500 nM; in test [2] it was greater than 10000 nM; on PRMT5 [3] it was greater than 500 nM; in test [4] it was greater than 1000 nM; at PRMT5 [5] it was greater than 500 nM; in test [6], greater than 1000 nM. Moreover, the MTAP intact/deleted ratio entry in test [6] is “C (an IC50 ratio of less than 3 fold)”.
